Among the data in patent US12275731B2, “Azaindole inhibitors of wild-type and mutant forms of LRRK2” (DANA-FARBER CANCER INSTITUTE, INC., priority 2018, dated 2025) are remaining binding values, retold here.

Experiment in all cases: KinomeScan profiling
What all share (type): binding

The target in one assay is T1, SIK2 (Homo sapiens, UniProt Q9H0K1).
T1 construct: purchased KinomeScan® (panel service)
The note with it: SIK2, 1 μM; read-out: % control. In short, it runs like this:
(§1)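 Compounds were screened at 1 μM in DMSO across a 468-kinase KinomeScan panel. Binding was expressed as % control, scaled between a positive control (0%) and DMSO (100%) using luminescence signal. A value under 35% counted as active.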

A further assay addresses T2, FLT3(D835H) (Homo sapiens, UniProt P36888, D835H).
T2 sequence (P36888 27-993 D835H): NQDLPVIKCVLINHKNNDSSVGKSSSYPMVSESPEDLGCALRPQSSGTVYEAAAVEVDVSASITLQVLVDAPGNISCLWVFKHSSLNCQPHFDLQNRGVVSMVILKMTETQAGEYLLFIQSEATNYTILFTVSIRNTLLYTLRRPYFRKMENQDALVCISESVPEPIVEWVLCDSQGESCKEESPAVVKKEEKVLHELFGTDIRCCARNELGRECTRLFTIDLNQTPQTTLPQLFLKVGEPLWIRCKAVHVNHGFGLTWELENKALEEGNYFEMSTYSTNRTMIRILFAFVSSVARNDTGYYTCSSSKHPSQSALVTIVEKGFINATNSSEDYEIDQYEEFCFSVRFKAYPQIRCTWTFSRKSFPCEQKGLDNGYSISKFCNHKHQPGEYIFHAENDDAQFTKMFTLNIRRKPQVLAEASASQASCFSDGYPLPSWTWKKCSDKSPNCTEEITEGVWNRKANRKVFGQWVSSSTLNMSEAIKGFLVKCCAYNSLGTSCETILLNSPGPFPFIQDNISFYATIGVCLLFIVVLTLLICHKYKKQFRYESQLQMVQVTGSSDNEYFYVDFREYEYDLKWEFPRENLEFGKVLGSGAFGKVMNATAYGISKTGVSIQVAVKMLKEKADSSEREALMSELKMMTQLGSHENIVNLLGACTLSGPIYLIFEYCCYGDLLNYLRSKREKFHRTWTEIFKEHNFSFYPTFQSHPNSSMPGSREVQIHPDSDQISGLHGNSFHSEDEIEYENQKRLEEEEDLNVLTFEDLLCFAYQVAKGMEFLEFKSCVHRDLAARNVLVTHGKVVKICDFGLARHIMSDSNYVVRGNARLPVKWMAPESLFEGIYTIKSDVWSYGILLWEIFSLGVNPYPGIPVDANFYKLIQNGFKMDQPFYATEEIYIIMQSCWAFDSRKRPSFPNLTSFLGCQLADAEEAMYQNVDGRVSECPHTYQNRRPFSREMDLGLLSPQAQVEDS
Conditions: read-out: % control. The gist of the method:
as §1

For another assay, the target named is YANK2 (Homo sapiens, UniProt Q9NY57). The note with it: YANK2, 1 μM; read-out: % control. The gist of the method:
as §1

The target in another assay is T3, FLT3-autoinhibited (Homo sapiens, UniProt P36888).
T3 sequence (P36888 564-993 limits assumed): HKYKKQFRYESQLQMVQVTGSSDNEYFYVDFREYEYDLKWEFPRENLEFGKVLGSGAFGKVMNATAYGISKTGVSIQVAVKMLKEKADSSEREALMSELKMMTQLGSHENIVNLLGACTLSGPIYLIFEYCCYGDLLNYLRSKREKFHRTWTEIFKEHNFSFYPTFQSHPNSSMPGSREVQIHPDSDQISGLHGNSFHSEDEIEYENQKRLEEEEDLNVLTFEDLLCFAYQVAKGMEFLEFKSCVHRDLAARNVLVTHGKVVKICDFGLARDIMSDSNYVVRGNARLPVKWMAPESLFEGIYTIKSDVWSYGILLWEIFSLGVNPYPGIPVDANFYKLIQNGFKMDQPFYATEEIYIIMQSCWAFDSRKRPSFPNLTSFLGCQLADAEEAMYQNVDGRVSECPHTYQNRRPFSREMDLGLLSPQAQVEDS
The note with it: read-out: % control. In short, it runs like this: as §1

The next assay addresses T4, PDPK1 (Homo sapiens, UniProt O15530).
T4 sequence (O15530 1-556): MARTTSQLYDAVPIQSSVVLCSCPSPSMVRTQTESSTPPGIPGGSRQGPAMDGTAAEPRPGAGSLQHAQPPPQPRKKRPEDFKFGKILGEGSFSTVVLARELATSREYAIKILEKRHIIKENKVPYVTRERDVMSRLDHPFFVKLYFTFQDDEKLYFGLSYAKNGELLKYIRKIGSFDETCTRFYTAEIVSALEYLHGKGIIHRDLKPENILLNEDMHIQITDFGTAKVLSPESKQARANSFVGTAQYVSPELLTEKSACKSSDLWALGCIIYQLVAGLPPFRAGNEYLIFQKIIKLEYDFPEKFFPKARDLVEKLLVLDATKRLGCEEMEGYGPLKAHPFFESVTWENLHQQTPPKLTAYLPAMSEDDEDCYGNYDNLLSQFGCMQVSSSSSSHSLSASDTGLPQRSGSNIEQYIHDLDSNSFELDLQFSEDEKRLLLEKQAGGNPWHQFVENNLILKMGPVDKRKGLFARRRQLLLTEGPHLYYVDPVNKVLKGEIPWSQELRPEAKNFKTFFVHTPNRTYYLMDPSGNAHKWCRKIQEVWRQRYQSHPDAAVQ
The note with it: PDPK1, 1 μM; read-out: % control. The gist of the method: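 Luminescence (RLU) was converted to percent of control, with DMSO set as 100% and a reference compound as 0%. Test compounds were run at 1 μM against 468 kinases. Kinases showing below 35% of control were scored as bound.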

For a further assay, the target named is HCK (Homo sapiens, UniProt P08631). The note with it: read-out: % control. The gist of the method:
as §1

A further assay deals with T5, PIM2 (Homo sapiens, UniProt Q9P1W9).
T5 construct: purchased KinomeScan® (panel service)
Conditions: PIM2, 1 μM; read-out: % control. The gist of the method: as §1

A further assay concerns the target LCK (Homo sapiens, UniProt P06239). Conditions: read-out: % control. The gist of the method: as §1
The target in another assay is LRRK2(G2019S) (Homo sapiens, UniProt Q5S007, G2019S). Conditions: read-out: % control. The gist of the method:
as §1

Chain of YANK2 (Q9NY57 whole entry): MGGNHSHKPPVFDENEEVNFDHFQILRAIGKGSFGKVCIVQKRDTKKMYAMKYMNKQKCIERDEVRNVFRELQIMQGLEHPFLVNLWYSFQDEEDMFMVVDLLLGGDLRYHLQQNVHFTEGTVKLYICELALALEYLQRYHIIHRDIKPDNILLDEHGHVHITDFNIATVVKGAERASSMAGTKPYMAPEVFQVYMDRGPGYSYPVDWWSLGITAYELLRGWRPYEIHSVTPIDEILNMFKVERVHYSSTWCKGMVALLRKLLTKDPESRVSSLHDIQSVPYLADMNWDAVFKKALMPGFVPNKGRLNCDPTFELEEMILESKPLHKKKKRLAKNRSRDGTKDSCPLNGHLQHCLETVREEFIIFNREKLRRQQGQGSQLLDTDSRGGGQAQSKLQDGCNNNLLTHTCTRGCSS
Chain of LRRK2(G2019S) (Q5S007 whole entry G2019S): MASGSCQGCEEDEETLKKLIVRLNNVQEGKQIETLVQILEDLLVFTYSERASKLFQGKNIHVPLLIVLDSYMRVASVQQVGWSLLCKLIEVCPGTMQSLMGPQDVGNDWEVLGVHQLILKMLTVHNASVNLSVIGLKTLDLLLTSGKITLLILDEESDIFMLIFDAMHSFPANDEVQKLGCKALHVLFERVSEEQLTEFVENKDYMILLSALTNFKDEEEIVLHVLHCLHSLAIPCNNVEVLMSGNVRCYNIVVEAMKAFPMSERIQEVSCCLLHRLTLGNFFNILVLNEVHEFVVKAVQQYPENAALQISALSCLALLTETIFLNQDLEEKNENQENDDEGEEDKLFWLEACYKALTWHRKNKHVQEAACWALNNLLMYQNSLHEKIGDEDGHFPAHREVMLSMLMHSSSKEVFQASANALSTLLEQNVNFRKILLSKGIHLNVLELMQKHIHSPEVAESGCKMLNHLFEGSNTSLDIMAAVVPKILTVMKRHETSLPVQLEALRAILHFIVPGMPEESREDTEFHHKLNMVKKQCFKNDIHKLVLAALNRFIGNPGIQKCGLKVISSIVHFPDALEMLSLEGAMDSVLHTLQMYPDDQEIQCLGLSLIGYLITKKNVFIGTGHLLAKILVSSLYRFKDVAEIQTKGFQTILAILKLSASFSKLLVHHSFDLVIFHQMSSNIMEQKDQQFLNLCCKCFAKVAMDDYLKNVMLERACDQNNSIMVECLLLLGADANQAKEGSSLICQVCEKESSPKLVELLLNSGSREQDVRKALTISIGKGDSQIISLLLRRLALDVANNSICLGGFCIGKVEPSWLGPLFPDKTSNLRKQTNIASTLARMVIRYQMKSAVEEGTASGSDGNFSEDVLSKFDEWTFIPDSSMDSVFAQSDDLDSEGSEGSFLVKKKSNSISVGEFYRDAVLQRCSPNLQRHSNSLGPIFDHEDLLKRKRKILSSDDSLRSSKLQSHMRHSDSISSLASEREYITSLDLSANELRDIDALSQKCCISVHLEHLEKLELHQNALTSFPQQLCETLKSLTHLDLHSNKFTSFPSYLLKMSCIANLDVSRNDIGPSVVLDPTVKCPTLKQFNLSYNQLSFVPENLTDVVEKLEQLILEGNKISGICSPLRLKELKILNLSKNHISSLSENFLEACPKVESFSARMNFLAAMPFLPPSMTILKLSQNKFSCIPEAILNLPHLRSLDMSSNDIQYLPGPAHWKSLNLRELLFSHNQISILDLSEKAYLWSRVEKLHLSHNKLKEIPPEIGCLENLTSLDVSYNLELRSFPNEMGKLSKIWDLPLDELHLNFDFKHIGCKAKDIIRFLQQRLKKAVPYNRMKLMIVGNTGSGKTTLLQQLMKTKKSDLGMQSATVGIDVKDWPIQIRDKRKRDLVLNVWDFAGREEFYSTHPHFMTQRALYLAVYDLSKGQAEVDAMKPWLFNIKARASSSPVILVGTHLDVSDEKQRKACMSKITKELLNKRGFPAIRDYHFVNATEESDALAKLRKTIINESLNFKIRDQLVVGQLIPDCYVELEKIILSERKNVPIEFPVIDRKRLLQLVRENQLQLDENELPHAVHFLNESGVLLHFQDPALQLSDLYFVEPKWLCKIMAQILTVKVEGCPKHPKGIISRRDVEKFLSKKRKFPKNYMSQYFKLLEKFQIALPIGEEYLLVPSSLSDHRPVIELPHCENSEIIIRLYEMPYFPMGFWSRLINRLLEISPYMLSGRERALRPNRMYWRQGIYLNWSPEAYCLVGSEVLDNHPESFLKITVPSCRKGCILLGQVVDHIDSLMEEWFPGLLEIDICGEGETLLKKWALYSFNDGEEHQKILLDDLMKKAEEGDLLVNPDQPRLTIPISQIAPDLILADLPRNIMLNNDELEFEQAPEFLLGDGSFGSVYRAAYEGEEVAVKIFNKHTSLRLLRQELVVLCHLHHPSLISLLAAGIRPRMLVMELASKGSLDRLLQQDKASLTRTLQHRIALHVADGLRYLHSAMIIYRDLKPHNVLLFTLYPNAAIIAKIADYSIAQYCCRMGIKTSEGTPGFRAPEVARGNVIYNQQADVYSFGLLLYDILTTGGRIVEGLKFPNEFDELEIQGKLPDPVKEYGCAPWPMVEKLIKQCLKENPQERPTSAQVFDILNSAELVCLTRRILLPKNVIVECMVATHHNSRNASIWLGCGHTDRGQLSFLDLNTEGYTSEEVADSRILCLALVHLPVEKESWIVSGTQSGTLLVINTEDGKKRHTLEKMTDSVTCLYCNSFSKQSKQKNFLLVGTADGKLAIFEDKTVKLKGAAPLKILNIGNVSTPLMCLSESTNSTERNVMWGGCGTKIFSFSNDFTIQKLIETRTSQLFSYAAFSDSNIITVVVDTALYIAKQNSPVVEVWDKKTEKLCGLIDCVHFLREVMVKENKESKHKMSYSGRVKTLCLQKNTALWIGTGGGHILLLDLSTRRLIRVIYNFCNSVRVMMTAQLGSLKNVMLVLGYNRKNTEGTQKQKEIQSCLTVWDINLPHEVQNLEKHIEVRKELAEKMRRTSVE
T1 sequence (Q9H0K1 whole entry): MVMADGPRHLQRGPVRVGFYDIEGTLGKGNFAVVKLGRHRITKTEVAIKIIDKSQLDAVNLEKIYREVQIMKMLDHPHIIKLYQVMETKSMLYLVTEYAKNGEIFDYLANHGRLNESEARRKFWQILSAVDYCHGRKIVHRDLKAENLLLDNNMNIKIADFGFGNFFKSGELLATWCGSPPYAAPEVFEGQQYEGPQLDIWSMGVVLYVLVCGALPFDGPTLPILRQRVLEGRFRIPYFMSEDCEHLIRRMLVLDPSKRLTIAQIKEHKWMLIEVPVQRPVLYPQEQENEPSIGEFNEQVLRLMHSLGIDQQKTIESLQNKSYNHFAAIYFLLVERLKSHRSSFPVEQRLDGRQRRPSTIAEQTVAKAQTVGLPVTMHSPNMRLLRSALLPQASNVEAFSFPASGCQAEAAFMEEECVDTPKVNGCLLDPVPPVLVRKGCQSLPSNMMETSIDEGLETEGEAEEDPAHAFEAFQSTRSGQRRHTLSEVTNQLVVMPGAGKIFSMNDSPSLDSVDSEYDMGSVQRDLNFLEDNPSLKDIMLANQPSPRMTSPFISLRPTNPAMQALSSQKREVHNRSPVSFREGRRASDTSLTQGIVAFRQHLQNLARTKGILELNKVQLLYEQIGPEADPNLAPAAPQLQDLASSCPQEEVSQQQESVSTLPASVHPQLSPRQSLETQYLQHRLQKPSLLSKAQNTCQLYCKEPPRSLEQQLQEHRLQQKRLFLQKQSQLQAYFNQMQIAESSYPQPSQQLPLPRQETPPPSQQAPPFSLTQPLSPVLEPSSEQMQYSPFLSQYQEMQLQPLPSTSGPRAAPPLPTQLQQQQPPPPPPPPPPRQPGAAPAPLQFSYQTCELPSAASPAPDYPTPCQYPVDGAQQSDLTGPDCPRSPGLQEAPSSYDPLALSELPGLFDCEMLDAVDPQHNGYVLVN
Chain of LCK (P06239 whole entry): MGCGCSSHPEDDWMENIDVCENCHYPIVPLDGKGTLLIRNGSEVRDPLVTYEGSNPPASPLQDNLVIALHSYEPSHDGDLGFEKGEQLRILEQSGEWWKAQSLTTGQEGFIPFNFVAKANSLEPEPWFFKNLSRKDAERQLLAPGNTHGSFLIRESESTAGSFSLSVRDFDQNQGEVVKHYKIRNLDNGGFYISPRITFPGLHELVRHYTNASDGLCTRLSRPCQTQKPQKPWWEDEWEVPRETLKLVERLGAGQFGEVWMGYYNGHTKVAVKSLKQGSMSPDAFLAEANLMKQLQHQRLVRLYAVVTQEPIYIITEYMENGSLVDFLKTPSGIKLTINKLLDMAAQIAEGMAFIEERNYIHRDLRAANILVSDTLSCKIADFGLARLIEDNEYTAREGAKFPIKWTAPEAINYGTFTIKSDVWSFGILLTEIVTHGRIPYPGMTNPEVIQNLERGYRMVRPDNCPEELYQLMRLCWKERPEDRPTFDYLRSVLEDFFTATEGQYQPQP
Chain of HCK (P08631 whole entry): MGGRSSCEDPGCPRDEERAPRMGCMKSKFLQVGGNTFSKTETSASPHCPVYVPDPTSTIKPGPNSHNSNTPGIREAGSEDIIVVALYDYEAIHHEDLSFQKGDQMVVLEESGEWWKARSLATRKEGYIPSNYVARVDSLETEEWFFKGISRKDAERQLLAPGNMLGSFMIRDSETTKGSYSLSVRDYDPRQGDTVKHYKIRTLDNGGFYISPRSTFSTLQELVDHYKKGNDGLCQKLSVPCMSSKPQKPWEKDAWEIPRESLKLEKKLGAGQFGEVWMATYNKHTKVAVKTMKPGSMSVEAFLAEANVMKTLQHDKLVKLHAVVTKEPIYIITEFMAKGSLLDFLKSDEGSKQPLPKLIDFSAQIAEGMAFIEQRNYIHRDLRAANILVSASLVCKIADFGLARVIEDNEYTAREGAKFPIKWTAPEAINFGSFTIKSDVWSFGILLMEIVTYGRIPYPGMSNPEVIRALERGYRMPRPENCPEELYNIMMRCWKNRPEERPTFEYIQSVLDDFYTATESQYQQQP

Consider `CNc1c(-c2ccc(C(=O)N3CCC(N4CCOCC4)CC3)cc2)cnc2[nH]cc(Cl)c12` [Compound 96, (4-(3-chloro-4-(methylamino)-1H-pyrrolo[2,3-b]pyridin-5-yl)phenyl)(4-morpholinopiperidin-1-yl)methanone], for which the remaining binding at 1 µM on SIK2 was 85%; at FLT3(D835H), 9.9%; at YANK2 it was 100%; at FLT3-autoinhibited, 93%; at PDPK1, 68%; at HCK it was 100%. Also, the values for the remaining binding at 1 µM on PIM2, at LCK and at LRRK2(G2019S) were 100%, 100% and 3.2%, respectively.
With `O=C(c1ccc(-c2cnc3[nH]cc(Cl)c3c2NC2CCCC2)cc1)N1CCC(N2CCOCC2)CC1` [Compound 101, (4-(3-chloro-4-(cyclopentylamino)-1H-pyrrolo[2,3-b]pyridin-5-yl)phenyl)(4-morpholinopiperidin-1-yl)methanone], the remaining binding at 1 µM at SIK2 came to 84%; at FLT3(D835H) it was 41%; at YANK2, 100%; at FLT3-autoinhibited it was 62%; at PDPK1, 94%; at HCK it was 96%. In addition, the figures for the remaining binding at 1 µM at PIM2, at LCK and at LRRK2(G2019S) were 94%, 100% and 22%, respectively.
Regarding `CNc1c(-c2cnn([C@H]3CCN(C(C)=O)C[C@@H]3F)c2)cnc2[nH]cc(Cl)c12` [Compound 77, 1-((3S,4S)-4-(4-(3-chloro-4-(methylamino)-1H-pyrrolo[2,3-b]pyridin-5-yl)-1H-pyrazol-1-yl)-3-fluoropiperidin-1-yl)ethan-1-one], the remaining binding at 1 µM was 100% at SIK2; 7.9% at FLT3(D835H); 100% at YANK2; 53% at FLT3-autoinhibited; 94% on PDPK1; 100% on HCK. Moreover, the remaining binding at 1 µM on PIM2 stood at 100%; on LCK it was 96%; on LRRK2(G2019S), 11%.
